Measurements: US10822337B2, “TGF-β inhibitorC” (Rigel Pharmaceuticals, Inc., priority 2015, dated 2020)

What was measured:
[1] = tested on: TGF-β signaling (TGF-β pSMAD, MPC-11); assay: AlphaScreen SureFire SMAD3 (p-Ser423/425) assay, inhibition of TGF-β signaling; format: cell-based; settings: Mus musculus, p-SMAD-3 (Ser423/425) in cell lysate after TGF-β stimulation
Source text: (§1) Example 2: AlphaScreen® SureFire® SMAD3 (p-Ser423/425) Assay
(§2) The p-SMAD-3 (Ser423/425) SureFire® assay has been designed to measure the phosphorylation of endogenous cellular p-SMAD-3 (Ser423/425) in cell lysates and is a system for the screening of both modulators of receptor activation (e.g. agonists and antagonists) as well as agents acting intracellularly, such as small molecule inhibitors of upstream events. The assay will measure p-SMAD-3 (Ser423/425) activation by either cloned or endogenous receptors, and can be applied to primary cells.
(§3) 1× Lysis buffer: 1 ml of 5× Lysis buffer was diluted with 4 ml of sterile water. After dilution, excess 1× Lysis buffer can be frozen and thawed up to 5 times without loss in activity.
(§4) P-SMAD-3 (Ser423/425) SureFire® Assay Protocols
(§5) Step A: Preparation of Buffers
(§6) Activation buffer: The buffer was warmed slowly to 37° C. and gently mixed to re-suspend. Activation buffer can be stored at room temperature with no loss in activity.
(§7) Reaction buffer: The buffer was kept at 4° C. while in use.
(§8) AlphaScreen® Protein A IgG Kit: The kit was stored at 4° C. in the dark.
(§9) Reaction buffer+Activation buffer+AlphaScreen® Acceptor beads: Reaction buffer (40 parts), Activation Buffer (10 parts) and Acceptor beads (1 part) were mixed and the mixture was stored at room temperature and used the same day. Mixture was added to 384-well plates; excess mixturewas discarded.
(§10) Dilution buffer+AlphaScreen® Donor beads: Dilution buffer (20 parts) and Donor beads (1 part) were mixed and the mixture was stored at room temperature and used the same day. Excess mixture was discarded.
(§11) Assay control samples: After reconstitution in 250 μl of water, lysates were at −20° C. in single use aliquots.
(§12) Step B: Preparation of Samples and Cells
(§13) 96-well Assay Protocol for 293FT and RMS13 adherent cells can be carried out manually or in high throughput with liquid handling robots.
(§14) The cells (80 μL of cells for 96 well plates) were plated in collagen coated tissue culture plates in RPMI or FreeStyle medium (Invitrogen) and incubated overnight. For manual analysis, 6 plates for GDF8, 6 plates for TGFβ, and optionally 6 plates for Alk5ca(ALKS constitutively active) were used.
(§15) The compound dilution plates were prepared as follows: 12 μL of DMSO was transferred into first column of 96-well plate, and 16 μL of DMSO was transferred into columns 2-12 of the 96-well plate. 12 μL of compound solution was transferred into first column of the DMSO-containing 96-well plate. Three-fold dilution was performed up to column 10 of the DMSO-containing 96-well plate.
(§16) Step C: Treatment and Analysis
(§17) The plate containing cells were treated with compounds for about 10 minutes, and then ligand was added. GDF8 or TGFb was added to plates to stimulate. 293FL cells were stimulatedfor 90 minutes at 37° C.; and RMS13 cells were stimulated for 60 minutes at 37° C. The medium was then removed from the cells, and 1× Lysis Buffer (about 25 μL) was added and the plate was gently agitated on plate shaker for 5-10 minutes.
(§18) The lysate (5 μL) was then placed into 384-well shallow plates avoiding the generation of bubbles. To this, the Reaction Buffer+Activation Buffer+AlphaScreen® Acceptor beadsmixture (5 μL) was added. The plate was sealed with adhesive cover and shielded from light (e.g., with metal foil), and agitated gently on plate shaker for 2 hours at room temperature.
(§19) Dilution buffer+AlphaScreen® Donor beads (2 μL) was then added, and the plate was intubated on the plate shaker for an additional 1½ hours. After completion, the plate was read on Synergy-4 or Enspire plate reader, using AlphaScreen® pSMAD3® settings.
(§20) Representative results for inhibition of GDF8 (data=GDF pSMAD (MPC11) (μM)) and TGF-β (data=TGF-β pSMAD (MPC-11) (μM)) signaling are shown in Table 1: […]

[2] = tested on: GDF8 signaling (GDF pSMAD, MPC11); assay: AlphaScreen SureFire SMAD3 (p-Ser423/425) assay, inhibition of GDF8 signaling; format: cell-based; settings: Mus musculus, MPC-11, p-SMAD-3 (Ser423/425) in cell lysate after GDF8 stimulation
Source text: as §1, §2, §3, §4, §5, §6, §7, §8, §9, §10, §11, §12, §13, §14, §15, §16, §17, §18, §19, §20

Compound | IC50 [1] | IC50 [2]
Fc1ccc(-c2nn3c(c2-c2ccc4nccnc4c2)CCC3)c(F)c1Cl [Compound 159, 6-(2-(3-Chloro-2,4-difluorophenyl)-5,6-dihydro-4H-pyrrolo[1,2-b]pyrazol-3-yl)quinoxaline] | 2730 nM | 526 nM
FC(F)(F)Oc1cccc(-c2nn3c(c2-c2ccc4nccn4c2)CCC3)c1 [Compound 124, 6-(2-(3-Trifluoromethoxyphenyl)-5,6-dihydro-4H-pyrrolo[1,2-b]pyrazol-3-yl)imidazo[1,2-a]pyridine] | 45.9 nM | 53.7 nM
Fc1cc(F)c(-c2nn3c(c2-c2ccc4nccn4c2)CCC3)cc1F [Compound 115, 6-(2-(2,4,5-Trifluorophenyl)-5,6-dihydro-4H-pyrrolo[1,2-b]pyrazol-3-yl)imidazo[1,2-a]pyridine] | 373 nM | 66.2 nM
FC(F)(F)Oc1cccc(-c2nn3c(c2-c2ccc4ncsc4c2)CCC3)c1 [Compound 125, 6-(2-(3-Trifluoromethoxyphenyl)-5,6-dihydro-4H-pyrrolo[1,2-b]pyrazol-3-yl)benzo[d]thiazole] | 124 nM | 160 nM
Cc1cccc(-c2nn3c(c2-c2ccc4ncn(C)c4c2)OCCC3)c1 [Compound 41, 3-(1-Methyl-1H-benzo[d]imidazol-6-yl)-2-(m-tolyl)-6,7-dihydro-5H-pyrazolo[5,1-b][1,3]oxazine] | 188 nM | 80.8 nM
Fc1c(Cl)cccc1-c1nn2c(c1-c1ccc3ncnn3c1)CCC2 [Compound 141, 6-(2-(3-Chloro-2-fluorophenyl)-5,6-dihydro-4H-pyrrolo[1,2-b]pyrazol-3-yl)-[1,2,4]triazolo[1,5-a]pyridine] | 703 nM | 208 nM
Fc1cccc(-c2nn3c(c2-c2ccc4ncnn4c2)CCC3)c1 [Compound 109, 6-(2-(3-Fluorophenyl)-5,6-dihydro-4H-pyrrolo[1,2-b]pyrazol-3-yl)-[1,2,4]triazolo[1,5-a]pyridine] | 927 nM | 132 nM
Fc1ccc(-c2nn3c(c2-c2ccc4ncccc4c2)CCC3)cc1Cl [Compound 146, 6-(2-(3-Chloro-4-fluorophenyl)-5,6-dihydro-4H-pyrrolo[1,2-b]pyrazol-3-yl)quinoline] | 2730 nM | 1040 nM
Cc1cc(-c2nn3c(c2-c2ccc4nccn4c2)CCC3)c(F)cc1F [Compound 181, 6-(2-(2,4-Difluoro-5-methylphenyl)-5,6-dihydro-4H-pyrrolo[1,2-b]pyrazol-3-yl)imidazo[1,2-a]pyridine] | 380 nM | 204 nM
Fc1ccc(-c2nn3c(c2-c2ccc4[nH]ncc4c2)CCC3)cc1Cl [Compound 142, 5-(2-(3-Chloro-4-fluorophenyl)-5,6-dihydro-4H-pyrrolo[1,2-b]pyrazol-3-yl)-1H-indazole] | 344 nM | 153 nM
Fc1ccccc1-c1nn2c(c1-c1ccc3ncsc3c1)CCC2 [Compound 201, 6-(2-(2-fluorophenyl)-5,6-dihydro-4H-pyrrolo[1,2-b]pyrazol-3-yl)benzo[d]thiazole] | 1460 nM | 225 nM
Fc1ccc(-c2nn3c(c2-c2ccc4nccnc4c2)OCC3)cc1 [Compound 70, 6-(4-Fluorophenyl)-7-(quinoxalin-6-yl)-2,3-dihydropyrazolo[5,1-b]oxazole] | 1370 nM | 399 nM
Fc1ccc(-c2nn3c(c2-c2ccc4nccnc4c2)CCC3)cc1F [Compound 89, 6-(2-(3,4-Difluorophenyl)-5,6-dihydro-4H-pyrrolo[1,2-b]pyrazol-3-yl)quinoxaline] | 1620 nM | 418 nM
Fc1ccc(-c2nn3c(c2-c2ccc4ncnn4c2)CCC3)c(F)c1F [Compound 133, 6-(2-(2,3,4-Trifluorophenyl)-5,6-dihydro-4H-pyrrolo[1,2-b]pyrazol-3-yl)-[1,2,4]triazolo[1,5-a]pyridine] | 701 nM | 247 nM
Cc1cccc(-c2nn3c(c2-c2ccc4[nH]ncc4c2)CCC3)c1 [Compound 7, 5-(2-(m-Tolyl)-5,6-dihydro-4H-pyrrolo[1,2-b]pyrazol-3-yl)-1H-indazole] | 39.7 nM | 15.1 nM

Second part, the compound after the results:

IC50 [1] | IC50 [2] | Compound
417 nM | 196 nM | Cn1cnc2ccc(-c3c(-c4cccc(F)c4)nn4c3CCC4)cc21 [Compound 79, 6-(2-(3-Fluorophenyl)-5,6-dihydro-4H-pyrrolo[1,2-b]pyrazol-3-yl)-1-methyl-1H-benzo[d]imidazole]
1040 nM | 310 nM | COc1cccc(-c2nn3c(c2-c2ccc4nccn4c2)CCC3)c1 [Compound 21, 6-(2-(3-Methoxyphenyl)-5,6-dihydro-4H-pyrrolo[1,2-b]pyrazol-3-yl)imidazo[1,2-a]pyridine]
512 nM | 221 nM | Fc1ccc(-c2nn3c(c2-c2ccc4cn[nH]c4c2)CCC3)cc1Cl [Compound 143, 6-(2-(3-Chloro-4-fluorophenyl)-5,6-dihydro-4H-pyrrolo[1,2-b]pyrazol-3-yl)-1H-indazole]
603 nM | 213 nM | Cc1c(F)ccc(-c2nn3c(c2-c2ccc4ncsc4c2)CCC3)c1F [Compound 170, 6-(2-(2,4-Difluoro-3-methylphenyl)-5,6-dihydro-4H-pyrrolo[1,2-b]pyrazol-3-yl)benzo[d]thiazole]
1770 nM | 309 nM | Fc1ccc(-c2nn3c(c2-c2ccc4nccn4c2)CCC3)cc1 [Compound 19, 6-(2-(4-Fluorophenyl)-5,6-dihydro-4H-pyrrolo[1,2-b]pyrazol-3-yl)imidazo[1,2-a]pyridine]
1320 nM | 310 nM | Fc1ccc(-c2nn3c(c2-c2ccc4[nH]ncc4c2)CCC3)cc1OC(F)(F)F [Compound 150, 5-(2-(4-Fluoro-3-trifluoromethoxyphenyl)-5,6-dihydro-4H-pyrrolo[1,2-b]pyrazol-3-yl)-1H-indazole]
2590 nM | 643 nM | Cc1cccc(-c2nn3c(c2-c2ccc4c(cnn4C)c2)CCC3)c1 [Compound 10, 1-Methyl-5-(2-(m-tolyl)-5,6-dihydro-4H-pyrrolo[1,2-b]pyrazol-3-yl)-1H-indazole]
264 nM | 106 nM | COc1cccc(-c2nn3c(c2-c2ccc4ncn(C)c4c2)CCC3)c1 [Compound 29, 6-(2-(3-Methoxyphenyl)-5,6-dihydro-4H-pyrrolo[1,2-b]pyrazol-3-yl)-1-methyl-1H-benzo[d]imidazole]
31.1 nM | 13.2 nM | Fc1ccc(Cl)cc1-c1nn2c(c1-c1ccc3ncnn3c1)CCC2 [Compound 178, 6-(2-(5-Chloro-2-fluorophenyl)-5,6-dihydro-4H-pyrrolo[1,2-b]pyrazol-3-yl)-[1,2,4]triazolo[1,5-a]pyridine]
1400 nM | 319 nM | Fc1ccc(-c2nn3c(c2-c2ccc4nccn4c2)CCC3)c(F)c1F [Compound 130, 6-(2-(2,3,4-Trifluoropehnyl)-5,6-dihydro-4H-pyrrolo[1,2-b]pyrazol-3-yl)imidazo[1,2-a]pyridine]
1950 nM | 330 nM | Fc1cccc(-c2nn3c(c2-c2ccc4nccnc4c2)CCC3)c1 [Compound 82, 6-(2-(3-Fluorophenyl)-5,6-dihydro-4H-pyrrolo[1,2-b]pyrazol-3-yl)quinoxaline]
1050 nM | 604 nM | Cc1cc(-c2nn3c(c2-c2ccnc4[nH]ccc24)CCC3)ccc1F [Compound 4, 4-(2-(4-Fluoro-3-methylphenyl)-5,6-dihydro-4H-pyrrolo[1,2-b]pyrazol-3-yl)-1H-pyrrolo[2,3-b]pyridine]
